Values joined by “and” are separate entries in the source; they are usually repeats but may differ in a detail not shown here. Equal entries are not always repeated.
Tests used:
[1] = logD7.4, shake flask method with n-octanol and phosphate-buffered saline (pH 7.4); type: physicochemical; conditions: n-octanol / PBS pH 7.4, shake flask
Source text: The kinetic profile of [^68Ga]Ga-DOTAGA-Glu-(FAPi)2 is explained considering its low lipophilicity, estimated by measuring the logD7.4 value using the shake flask method with n-octanol and phosphate-buffered saline (pH 7.4). The logD7.4 of −2.5 ± 0.05 indicates good hydrophilicity, leading to renal excretion over biliary excretion. […] Moreover, the compound is more hydrophilic than the first-generation dimer [^68Ga]Ga-DOTAGA.(SA.FAPi)2 (−2.0 ± 0.1) ([25]), resulting in lower background uptake and higher tumor-to-background image contrast.

[2] = Stability of radiochemical purity (RCP) post-formulation by radio-HPLC; type: physicochemical; conditions: formulated in phosphate buffer (0.1 M, pH 7) with ethanol
Method: Gallium-68 chloride was obtained by eluting the ^68Ge/^68Ga generator (Galliapharm, Eckert & Ziegler, Berlin, Germany) with 0.1 M HCl. Ammonium acetate buffer (0.1 M, pH 5.5), and a DOTAGA-Glu(FAPi)2 stock solution (2 mg/mL) for labeling was prepared using water for ultratrace analysis (Merck, Darmstadt, Germany). [^68Ga]GaCl3 solution in 0.1 M HCl (500 µL, ca. 200 MBq ^68Ga) was mixed with ammonium acetate buffer (80 µL) and DOTAGA-Glu-(FAPi)2 stock solution (4 µL). The resulting mixture was placed on an agitating mixer and shaken at 600 rpm for 5 min at 60 °C. Afterward, the reaction mixture was diluted with 5 mL water and passed through a Strata-X 33 µm polymeric reversed-phase cartridge (Phenomenex, Torrance, CA, USA). The cartridge was rinsed with more water (0.3 mL) and eluted with absolute ethanol (0.5 mL). Ethanol was evaporated under nitrogen flow and gentle heating to 40 °C. The residue was resolubilized in an aliquot of fresh ethanol (20 µL) and further diluted with phosphate buffer (0.1 M, pH 7) to a total volume of 2 mL.
Radiochemical conversion (RCC) for the ^68Ga-labeling process and radiochemical purity (RCP) of the formulated [^68Ga]Ga-DOTAGA-Glu(FAPi)2 were assessed by radio-HPLC.

[3] = test system: endogenously FAP-expressing xenografted mouse model, U87MG; assay: In vivo PET/CT imaging, organ distribution in U87MG xenografted mice
Source text: Six-week-old female NMRI nude mice were purchased (Janvier, Le Genest-Saint-Isle, France) and housed in groups of 4–8 mice in individually ventilated cages under regular lighting conditions. They were fed a standard pathogen-free pellet diet and provided water ad libitum. All animal experiments were approved by The Animal Experiments Inspectorate in Denmark (2021-15-0201-01041). The animals were acclimatized for two weeks before study initiation.
To establish a tumor model, the mice were subcutaneously inoculated on the right flank with a human xenograft glioblastoma U87MG (HTB-14, ATCC, Manassas, VA, USA). These cells were cultivated in Dulbecco’s modified Eagle’s medium (DMEM) supplemented with fetal bovine serum (FBS) and penicillin–streptomycin (Pen/Strep). Tumor growth was monitored two times weekly using calipers.
After adequate tumor establishment, the animals were injected intravenously in the tail vein with 4.49 ± 0.04 MBq [^68Ga]Ga-DOTAGA-Glu(FAPi)2 in a 100 μL phosphate buffer (0.1 M, pH 7) with 1% ethanol (v/v). PET/CT imaging (Inveon, Siemens Healthineers, Knoxville, TN, USA) was performed immediately after injection, and PET data were acquired for 3000 s. The imaging protocol included a dynamic framing setup, with five consecutive frames of 600 s each, resulting in average time intervals of 0–10, 10–20, 20–30, 30–40, and 40–50 min post-injection. During imaging, body temperature was maintained using a heated platform.
PET images were reconstructed using the 3D-OSEM/SP-MAP algorithm, and attenuation correction was performed using the co-registered CT images. The activity concentration was decay-corrected to the time of injection and quantified using Inveon Research Workplace (IRW). Regions of interest were manually drawn on CT images to delineate organs and derive volume and activity. Subsequently, the percentage of injected dose per gram (% ID/g) was calculated for tumor, blood, liver, kidney, and muscle tissues for each frame.
All graphical representations of the data were generated using Prism version 10.1.0 (1994–2023, GraphPad Software, LLC, Boston, MA, USA). The results were expressed as the mean ± standard error of the mean (SEM).

[4] = 5 min post-injection, Mean±SEM, n = 4 mice
[5] = 5 min post-injection, individual mice M1-M4
[6] = 15 min post-injection, Mean±SEM, n = 4 mice
[7] = 15 min post-injection, individual mice M1-M4
[8] = 25 min post-injection, Mean±SEM, n = 4 mice
[9] = 25 min post-injection, individual mice M1-M4
[10] = 35 min post-injection, Mean±SEM, n = 4 mice
[11] = 35 min post-injection, individual mice M1-M4
[12] = 45 min post-injection, Mean±SEM, n = 4 mice, listed as [68Ga]Ga-DOTAGA-Glu-(FAPi)2
[13] = 45 min post-injection, Mean±SEM, n = 4 mice, listed as [^68Ga]Ga-DOTAGA-Glu-(FAPi)2
[14] = 45 min post-injection, individual mice M1-M4

N#C[C@@H]1CC(F)(F)CN1C(=O)CNC(=O)c1ccnc2ccc(OCCCCNC(=O)CC[C@H](NC(=O)CCC(C(=O)O)N3CCN(CC(=O)[O-])CCN(CC(=O)[O-])CCN(CC(=O)[O-])CC3)C(=O)NCCCCOc3ccc4nccc(C(=O)NCC(=O)N5CC(F)(F)C[C@H]5C#N)c4c3)cc12.[68Ga+3] (stereo partly drawn) [[^68Ga]Ga-DOTAGA-Glu(FAPi)2]
logD7.4 [1]: −2.5 ± 0.05
RCP stable post-formulation [2]: at least 1 h
Organ distribution, bladder [3, 4]: 3.96±0.42 %ID/g
Organ distribution, kidney [3, 4]: 6.68±0.48 %ID/g
Organ distribution, liver [3, 4]: 5.83±0.58 %ID/g
Organ distribution, tumor [3, 4]: 2.55±0.38 %ID/g
Tumor-to-blood ratio (TBR) [3, 4]: 0.46±0.05
Tumor-to-kidney ratio (TKR) [3, 4]: 0.38±0.03
Tumor-to-liver ratio (TLR) [3, 4]: 0.43±0.03
Tumor-to-muscle ratio (TMR) [3, 4]: 3.66±0.13
Organ distribution, bladder [3, 5]: 4.80 %ID/g and 4.51 %ID/g and 3.00 %ID/g and 3.51 %ID/g
Organ distribution, blood [3, 5]: 5.98 %ID/g
Organ distribution, kidney [3, 5]: 7.50 %ID/g and 7.11 %ID/g and 6.77 %ID/g and 5.32 %ID/g
Organ distribution, liver [3, 5]: 6.93 %ID/g and 6.06 %ID/g and 6.15 %ID/g and 4.19 %ID/g
Organ distribution, tumor [3, 5]: 3.52 %ID/g and 2.54 %ID/g and 1.66 %ID/g
Tumor-to-blood ratio (TBR) [3, 5]: 0.59 and 0.42 and 0.37 and 0.44
Tumor-to-kidney ratio (TKR) [3, 5]: 0.47 and 0.35 and 0.38 and 0.31
Tumor-to-liver ratio (TLR) [3, 5]: 0.51 and 0.41 (2×) and 0.40
Tumor-to-muscle ratio (TMR) [3, 5]: 3.52 and 3.35 and 3.91 and 3.86
Organ distribution, bladder [3, 6]: 25±2.12 %ID/g
Organ distribution, kidney [3, 6]: 7.08±0.56 %ID/g
Organ distribution, liver [3, 6]: 4.02±0.15 %ID/g
Organ distribution, tumor [3, 6]: 4.28±0.37 %ID/g
Tumor-to-blood ratio (TBR) [3, 6]: 0.92±0.10
Tumor-to-kidney ratio (TKR) [3, 6]: 0.61±0.05
Tumor-to-liver ratio (TLR) [3, 6]: 1.06±0.07
Tumor-to-muscle ratio (TMR) [3, 6]: 3.68±0.32
Organ distribution, bladder [3, 7]: 20.10 %ID/g and 25.42 %ID/g and 30.39 %ID/g and 24.10 %ID/g
Organ distribution, blood [3, 7]: 4.04 %ID/g
Organ distribution, kidney [3, 7]: 6.09 %ID/g and 6.56 %ID/g and 8.67 %ID/g and 7.01 %ID/g
Organ distribution, liver [3, 7]: 3.79 %ID/g and 3.93 %ID/g and 4.45 %ID/g and 3.92 %ID/g
Organ distribution, tumor [3, 7]: 5.16 %ID/g and 3.44 %ID/g and 4.56 %ID/g
Tumor-to-blood ratio (TBR) [3, 7]: 1.04 and 0.69 and 1.13 and 0.84
Tumor-to-kidney ratio (TKR) [3, 7]: 0.75 and 0.60 and 0.59 and 0.49
Tumor-to-liver ratio (TLR) [3, 7]: 1.20 and 1.00 and 1.16 and 0.88
Tumor-to-muscle ratio (TMR) [3, 7]: 3.40 and 3.28 and 4.65 and 3.37
Organ distribution, bladder [3, 8]: 42.54±5.06 %ID/g
Organ distribution, kidney [3, 8]: 4.02±0.60 %ID/g
Organ distribution, liver [3, 8]: 3.21±0.11 %ID/g
Organ distribution, tumor [3, 8]: 4.49±0.45 %ID/g
Tumor-to-blood ratio (TBR) [3, 8]: 1.12±0.15
Tumor-to-kidney ratio (TKR) [3, 8]: 1.14±0.07
Tumor-to-liver ratio (TLR) [3, 8]: 1.40±0.12
Tumor-to-muscle ratio (TMR) [3, 8]: 3.71±0.40
Organ distribution, bladder [3, 9]: 31.21 %ID/g and 41.63 %ID/g and 55.86 %ID/g and 41.46 %ID/g
Organ distribution, blood [3, 9]: 3.66 %ID/g
Organ distribution, kidney [3, 9]: 3.47 %ID/g and 3.78 %ID/g and 5.77 %ID/g and 3.07 %ID/g
Organ distribution, liver [3, 9]: 2.94 %ID/g and 3.20 %ID/g and 3.49 %ID/g and 3.19 %ID/g
Organ distribution, tumor [3, 9]: 5.65 %ID/g and 3.51 %ID/g and 4.60 %ID/g
Tumor-to-blood ratio (TBR) [3, 9]: 1.46 and 0.76 and 1.26 and 1.01
Tumor-to-kidney ratio (TKR) [3, 9]: 1.33 and 1.11 and 0.98 and 1.14
Tumor-to-liver ratio (TLR) [3, 9]: 1.56 and 1.31 and 1.62 and 1.10
Tumor-to-muscle ratio (TMR) [3, 9]: 3.57 and 3.36 and 4.87 and 3.03
Organ distribution, bladder [3, 10]: 50.28±7.13 %ID/g
Organ distribution, kidney [3, 10]: 2.78±0.44 %ID/g
Organ distribution, liver [3, 10]: 2.88±0.08 %ID/g
Organ distribution, tumor [3, 10]: 4.62±0.51 %ID/g
Tumor-to-blood ratio (TBR) [3, 10]: 1.29±0.21
Tumor-to-kidney ratio (TKR) [3, 10]: 1.70±0.10
Tumor-to-liver ratio (TLR) [3, 10]: 1.60±0.16
Tumor-to-muscle ratio (TMR) [3, 10]: 3.74±0.37
Organ distribution, bladder [3, 11]: 35.81 %ID/g and 47.82 %ID/g and 69.95 %ID/g and 47.53 %ID/g
Organ distribution, blood [3, 11]: 3.44 %ID/g
Organ distribution, kidney [3, 11]: 2.39 %ID/g and 2.64 %ID/g and 4.04 %ID/g and 2.06 %ID/g
Organ distribution, liver [3, 11]: 2.67 %ID/g and 2.93 %ID/g and 3.06 %ID/g and 2.85 %ID/g
Organ distribution, tumor [3, 11]: 5.95 %ID/g and 3.52 %ID/g and 4.68 %ID/g
Tumor-to-blood ratio (TBR) [3, 11]: 1.85 and 0.85 and 1.36 and 1.11
Tumor-to-kidney ratio (TKR) [3, 11]: 1.96 and 1.64 and 1.47 and 1.71
Tumor-to-liver ratio (TLR) [3, 11]: 1.75 and 1.48 and 1.94 and 1.24
Tumor-to-muscle ratio (TMR) [3, 11]: 3.66 and 3.17 and 4.80 and 3.32
Organ distribution, bladder ([3]; 45 min post-injection, Mean±SEM, n = 4 mice): 53.81±7.59 %ID/g
Organ distribution, kidney [3, 12]: 2.16±0.21 %ID/g
Organ distribution, liver [3, 12]: 2.73±0.09 %ID/g
Organ distribution, tumor [3, 12]: 4.65±0.52 %ID/g
Tumor-to-blood ratio (TBR) [3, 12]: 1.38±0.25
Tumor-to-kidney ratio (TKR) [3, 12]: 2.15±0.08
Tumor-to-liver ratio (TLR) [3, 12]: 1.71±0.17
Tumor-to-muscle ratio (TMR) [3, 12]: 3.88±0.41
Tumor-to-blood ratio (TBR) [3, 13]: 1.4 ± 0.3
Tumor-to-liver ratio (TLR) [3, 13]: 1.7 ± 0.2
Tumor-to-muscle ratio (TMR) [3, 13]: 3.9 ± 0.4
Organ distribution, bladder [3, 14]: 39.77 %ID/g and 49.32 %ID/g and 75.38 %ID/g and 50.79 %ID/g
Organ distribution, kidney [3, 14]: 1.99 %ID/g and 2.17 %ID/g and 2.73 %ID/g and 1.74 %ID/g
Organ distribution, liver [3, 14]: 2.47 %ID/g and 2.78 %ID/g and 2.91 %ID/g and 2.75 %ID/g
Organ distribution, tumor [3, 14]: 4.40 %ID/g and 6.01 %ID/g and 3.52 %ID/g and 4.68 %ID/g
Tumor-to-blood ratio (TBR) [3, 14]: 1.19 and 2.06 and 0.88 and 1.38
Tumor-to-kidney ratio (TKR) [3, 14]: 2.35 and 2.03 and 2.20 and 2.02
Tumor-to-liver ratio (TLR) [3, 14]: 1.89 and 1.58 and 2.07 and 1.28
Tumor-to-muscle ratio (TMR) [3, 14]: 3.52 and 3.41 and 5.09 and 3.49
clearance route ([3]; PET/CT, U87MG tumor-bearing mice): cleared mainly by the kidneys

Reference: publication PMC11431137, “[^68Ga]Ga-DOTAGA-Glu(FAPi)2 Shows Enhanced Tumor Uptake and Theranostic Potential in Preclinical PET Imaging” (Diagnostics, 2024)
